Measurements taken from patent publication US20100249145A1, “Inhibitors of VEGF Receptor and HGF Receptor Signaling” (Methylgene, Inc., priority 2005, published 2010).
pIC50: −log10 of the molar value.

Assays:
[1] = target: T1, VEGF receptor KDR (Homo sapiens, UniProt P35968); assay: In vitro receptor tyrosine kinase assay (DELFIA), VEGF receptor KDR; assay type: biochemical; details: Table 30; ATP 0.6 uM, enzyme 5 nM; read-out: VEGF(enz.) (IC50)
T1 construct: made in house; host or cells: Sf9 cells (Spodoptera frugiperda), recombinant baculovirus

[2] = system: U87 cells; assay: In vivo solid tumor disease model, U87 xenograft; design: species or system female athymic CD 1 mice; details: U87MG
Excerpt: (§1) In Vivo Solid Tumor Disease Model
(§2) This test measures the capacity of compounds to inhibit solid tumor growth.
(§3) Tumor xenografts were established in the flank of female athymic CD 1 mice (Charles River Inc.), by subcutaneous injection of 1×10^6U87, A431 or SKLMS cells/mouse. Once established, tumors were then serially passaged s.c. in nude mice hosts. Tumor fragments from these host animals were used in subsequent compound evaluation experiments. For compound evaluation experiments female nude mice weighing approximately 20 g were implanted s.c. by surgical implantation with tumor fragments of ˜30 mg from donor tumors. When the tumors were approximately 100 mm^3 in size (˜7-10 days following implantation), the animals were randomized a separated into treatment and control groups. Each group contained 6-8 tumor-bearing mice, each of which was ear-tagged and followed individually throughout the experiment
(§4) Mice were weighed and tumor measurements are taken by calipers three times weekly, starting on Day 1. These tumor measurements were converted to tumor volume by the well-known formula (L+W/4)^34/3π. The experiment was terminated when the control tumors reached a size of approximately 1500 mm^3. In this model, the change in mean tumor volume for a compound treated group/the change in mean tumor volume of the control group (non-treated or vehicle treated)×100 (ΔT/ΔC) was subtracted from 100 to give the percent tumor growth inhibition (% TGI) for each test compound. In addition to tumor volumes, body weight of animals were monitored twice weekly for up to 3 weeks.
(§5) Regiment of administration was once daily.

[3] = system: DU145; assay: In vivo solid tumor disease model, DU145 xenograft; design: species or system female athymic CD 1 mice; details: vehicle DMSO, 10 days
[4] = system: SKLMS cells; assay: In vivo solid tumor disease model, SKLMS xenograft; design: species or system female athymic CD 1 mice; details: SKLMS40, 30 mg/kg once daily IP, vehicle DMSO
Excerpt: as §1, §2, §3, §4, §5

[5] = system: SW48; assay: In vivo solid tumor disease model, SW48 xenograft; design: species or system female athymic CD 1 mice; details: 30 mg/kg once daily IP, vehicle DMSO, 14 days
[6] = system: A431 cells; assay: In vivo solid tumor disease model, A431 xenograft; design: species or system female athymic CD 1 mice; details: 30 mg/kg once daily IP, vehicle DMSO
Excerpt: as §1, §2, §3, §4, §5

[7] = system: MV4-11; assay: In vivo solid tumor disease model, MV4-11 xenograft; design: species or system female athymic CD 1 mice; details: 20 mg/kg once daily p.o., 14 days
[8] = system: MDA-MB-231; assay: In vivo solid tumor disease model, MDA-MB-231 xenograft; design: species or system female athymic CD 1 mice; details: 75 mg/kg once daily PO, vehicle 0.5% CMC in acetate buffer (pH 4.0), 14 days
[9] = system: MNNG-HOS; assay: In vivo solid tumor disease model, MNNG-HOS xenograft; design: species or system female athymic CD 1 mice; details: 14 days
[10] = system: MKN74; assay: In vivo solid tumor disease model, MKN74 xenograft; design: species or system female athymic CD 1 mice; details: vehicle DMSO, 10 days
[11] = system: HCT116; assay: In vivo solid tumor disease model, HCT116 xenograft; design: species or system female athymic CD 1 mice; details: HCT116, vehicle DMSO
[12] = system: A549; assay: In vivo solid tumor disease model, A549 xenograft; design: species or system female athymic CD 1 mice
[13] = target: T2, recombinant human c-Met/HGF receptor (Homo sapiens, UniProt P08581); assay: In vitro receptor tyrosine kinase assay (DELFIA), c-Met/HGF receptor; assay type: biochemical; details: Table 30; ATP 10 uM, enzyme 25 nM; read-out: C-Met (enz.) (IC50)
T2 construct: His tag (histidine tag from pBlueBacHis2A); made in house; host or cells: Hi-5 cells (Trichoplusia ni), recombinant baculovirus

[14] = target: TPR-MET fusion protein (Homo sapiens, UniProt P08581); assay: C-Met phosphorylation cell-based assay (MNNGHOS cells, immunoblot); details: Table 30, 3 hours treatment, read-out: C-Met cell-based Y1230-34-35 tpr-met inhibition (IC50)
Excerpt: C-Met Phosphorylation Cell-Based Assay

[15] = 30 mg/kg once daily IP, vehicle DMSO, 14 days
[16] = 15 mg/kg once daily IP, vehicle DMSO, 10 days
[17] = 100 mg/kg once daily PO, vehicle 5% DMSO - 1% Tween-80 in water, 14 days
[18] = 30 mg/kg once daily IP, 14 days

T1 sequence (P35968 806-1356): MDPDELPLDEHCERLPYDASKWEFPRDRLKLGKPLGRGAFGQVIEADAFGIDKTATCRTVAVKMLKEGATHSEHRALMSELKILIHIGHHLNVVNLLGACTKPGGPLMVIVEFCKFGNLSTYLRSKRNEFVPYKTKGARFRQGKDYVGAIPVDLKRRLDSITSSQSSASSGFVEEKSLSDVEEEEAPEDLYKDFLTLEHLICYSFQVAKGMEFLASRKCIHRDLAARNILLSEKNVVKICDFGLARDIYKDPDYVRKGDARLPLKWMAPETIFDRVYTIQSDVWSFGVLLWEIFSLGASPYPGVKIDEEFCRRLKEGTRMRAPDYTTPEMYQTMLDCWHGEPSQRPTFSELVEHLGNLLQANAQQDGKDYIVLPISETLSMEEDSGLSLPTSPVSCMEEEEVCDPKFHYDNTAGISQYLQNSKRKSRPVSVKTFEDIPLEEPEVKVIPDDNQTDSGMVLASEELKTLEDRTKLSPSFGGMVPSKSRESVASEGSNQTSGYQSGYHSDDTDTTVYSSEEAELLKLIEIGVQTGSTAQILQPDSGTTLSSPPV
TPR-MET fusion protein, sequence (P08581 with tags, fused parts or gaps): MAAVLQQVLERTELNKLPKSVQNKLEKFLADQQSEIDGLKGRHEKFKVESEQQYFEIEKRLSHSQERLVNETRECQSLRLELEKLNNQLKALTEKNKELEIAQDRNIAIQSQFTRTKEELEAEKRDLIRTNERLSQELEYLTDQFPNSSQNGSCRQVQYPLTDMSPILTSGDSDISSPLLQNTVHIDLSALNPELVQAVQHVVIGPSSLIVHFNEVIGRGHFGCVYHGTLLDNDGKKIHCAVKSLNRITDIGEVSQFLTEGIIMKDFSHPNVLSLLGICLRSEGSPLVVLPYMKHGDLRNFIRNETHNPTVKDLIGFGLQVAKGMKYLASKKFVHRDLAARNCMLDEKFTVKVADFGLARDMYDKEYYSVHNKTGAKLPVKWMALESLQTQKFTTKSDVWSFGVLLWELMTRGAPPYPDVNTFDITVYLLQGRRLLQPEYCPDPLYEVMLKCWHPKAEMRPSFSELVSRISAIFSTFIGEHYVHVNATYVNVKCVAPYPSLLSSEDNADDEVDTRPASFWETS
T2 sequence (P08581 1078-1337): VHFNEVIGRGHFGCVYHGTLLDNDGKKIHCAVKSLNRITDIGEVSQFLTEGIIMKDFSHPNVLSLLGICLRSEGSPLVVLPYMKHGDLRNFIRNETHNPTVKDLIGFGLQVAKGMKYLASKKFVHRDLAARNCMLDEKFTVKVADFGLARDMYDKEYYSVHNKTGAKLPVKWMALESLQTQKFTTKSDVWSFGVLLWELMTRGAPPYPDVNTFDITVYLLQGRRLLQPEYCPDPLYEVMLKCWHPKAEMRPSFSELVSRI

For `O=C(Cc1ccccc1)NC(=S)Nc1ccc(Oc2ccnc3cc(-c4ccccn4)sc23)c(F)c1` [Example 13, 1-(4-(2-(Pyridin-2-yl)thieno[3,2-b]pyridin-7-yloxy)-3-fluorophenyl)-3-(2-phenylacetyl)thiourea], the pIC50 [1] was over 7.30, the “Tumor Growth Inhibition (%)” value [2, 15] was “a (% TGI in the range of 75-100)” and the “Tumor Growth Inhibition (%)” value ([3]; 30 mg/kg once daily IP) was “d (% TGI in the range of 0-24)”. For the same compound, the “Tumor Growth Inhibition (%)” value ([4]; 10 days) was “b (% TGI in the range of 50-74)”, the “Tumor Growth Inhibition (%)” value [5] was “d (% TGI in the range of 0-24)” and the “Tumor Growth Inhibition (%)” value ([6]; 7 days) was “b (% TGI in the range of 50-74)”.

In the case of `C#Cc1ccccc1CC(=O)NC(=S)Nc1ccc(Oc2ccnc3cc(-c4cn(C)cn4)sc23)c(F)c1` [drawing 497], the “Tumor Growth Inhibition (%)” value [7] was “a (% TGI in the range of 75-100)”.

In the case of `Cn1cnc(-c2cc3nccc(Oc4ccc(NC(=S)NC(=O)Cc5ccccc5F)cc4F)c3s2)c1` [Example 137, N-(3-Fluoro-4-(2-(1-methyl-1H-imidazol-4-yl)thieno[3,2-b]pyridin-7-yloxy)phenylcarbamothioyl)-2-(2-fluorophenyl)acetamide], the “Tumor Growth Inhibition (%)” value [8] was “b (% TGI in the range of 50-74)”.

In the case of `CCn1cnc(-c2cc3nccc(Oc4ccc(NC(=S)NC(=O)Cc5ccccc5C)cc4F)c3s2)c1` [drawing 495], the “Tumor Growth Inhibition (%)” value ([9]; 20 mg/kg once daily p.o.) was “c (% TGI in the range of 25-49)”.

In the case of `Cn1cnc(-c2cc3nccc(Oc4ccc(NC(=S)NC(=O)Cc5ccc(F)cc5)cc4F)c3s2)c1` [drawing 494], the “Tumor Growth Inhibition (%)” value ([9]; 75 mg/kg once daily p.o.) was “a* (greater than 100% tumor growth inhibition (i.e., tumor shrinkage))”.

With `Cn1ccnc1-c1cc2nccc(Oc3ccc(NC(=S)NC(=O)Cc4ccccc4)cc3F)c2s1` [Example 15, N-(3-Fluoro-4-(2-(1-methyl-1H-imidazol-2-yl)thieno[3,2-b]pyridin-7-yloxy)phenylcarbamothioyl)-2-phenylacetamide] the pIC50 [1] was over 7.30, the “Tumor Growth Inhibition (%)” value [2, 16] was “b (% TGI in the range of 50-74)” and the “Tumor Growth Inhibition (%)” value ([2]; 15 mg/kg once daily IV, vehicle 50/50 DMSO:40/60 PEG/0.2 N HCl in saline, 10 days) was “b (% TGI in the range of 50-74)”. For the same compound, the “Tumor Growth Inhibition (%)” value ([2]; 30 mg/kg once daily IP, vehicle DMSO, 10 days) was “b (% TGI in the range of 50-74)”, the “Tumor Growth Inhibition (%)” value [2, 15] was “b (% TGI in the range of 50-74)” and the “Tumor Growth Inhibition (%)” value ([2]; 30 mg/kg once daily IV, vehicle 50/50 DMSO:40/60 PEG/0.2 N HCl in saline, 10 days) was “b (% TGI in the range of 50-74)”. The “Tumor Growth Inhibition (%)” value [2, 17] was “a (% TGI in the range of 75-100)”, the “Tumor Growth Inhibition (%)” value ([3]; 15 mg/kg once daily IP) was “d (% TGI in the range of 0-24)” and the “Tumor Growth Inhibition (%)” value ([10]; 15 mg/kg once daily IP) was “c (% TGI in the range of 25-49)”. The “Tumor Growth Inhibition (%)” value ([10]; 30 mg/kg once daily IP) was “c (% TGI in the range of 25-49)”, the “Tumor Growth Inhibition (%)” value ([11]; 15 mg/kg once daily IP, 10 days) was “c (% TGI in the range of 25-49)” and the “Tumor Growth Inhibition (%)” value ([11]; 30 mg/kg once daily IP, 10 days) was “c (% TGI in the range of 25-49)”. For the same compound, the “Tumor Growth Inhibition (%)” value [12, 15] was “b (% TGI in the range of 50-74)”, the “Tumor Growth Inhibition (%)” value ([12]; 50 mg/kg once daily PO, vehicle 5% DMSO - 1% Tween-80 in water, 11 days) was “c (% TGI in the range of 25-49)” and the “Tumor Growth Inhibition (%)” value ([12]; 75 mg/kg once daily PO, vehicle 5% DMSO - 1% Tween-80 in water, 10 days) was “b (% TGI in the range of 50-74)”. The “Tumor Growth Inhibition (%)” value ([12]; 75 mg/kg once daily PO, vehicle 5% DMSO - 1% Tween-80 in water, 12 days) was “c (% TGI in the range of 25-49)”, the “Tumor Growth Inhibition (%)” value ([4]; 10 days) was “b (% TGI in the range of 50-74)” and the “Tumor Growth Inhibition (%)” value ([6]; 14 days) was “b (% TGI in the range of 50-74)”.

`Cn1cnc(-c2cc3nccc(Oc4ccc(NC(=S)NC(=O)Cc5ccc(F)cc5F)cc4F)c3s2)c1` [drawing 493] was tested, and the “Tumor Growth Inhibition (%)” value ([9]; 40 mg/kg once daily p.o.) was “a (% TGI in the range of 75-100)”.

In the case of `CN(C)C(=O)c1cc2nccc(Oc3ccc(NC(=S)NC(=O)Cc4ccccc4)cc3F)c2s1` [Example 1, 1-(4-(2-(Dimethylcarbamoyl)thieno[3,2-b]pyridin-7-yloxy)-3-fluorophenyl)-3-(2-phenylacetyl)thiourea], the pIC50 [1] was over 7.30, the “Tumor Growth Inhibition (%)” value [2, 16] was “c (% TGI in the range of 25-49)” and the “Tumor Growth Inhibition (%)” value ([2]; 30 mg/kg once daily IP, vehicle DMSO, 7 days) was “c (% TGI in the range of 25-49)”. The “Tumor Growth Inhibition (%)” value [2, 15] was “c (% TGI in the range of 25-49)”, the “Tumor Growth Inhibition (%)” value ([2]; 30 mg/kg once daily IP, vehicle DMSO, 14 days (a* footnote class)) was “a* (greater than 100% tumor growth inhibition (i.e., tumor shrinkage))” and the “Tumor Growth Inhibition (%)” value [2, 17] was “c (% TGI in the range of 25-49)”. For the same compound, the “Tumor Growth Inhibition (%)” value ([10]; 15 mg/kg once daily IP) was “d (% TGI in the range of 0-24)”, the “Tumor Growth Inhibition (%)” value ([10]; 30 mg/kg once daily IP) was “c (% TGI in the range of 25-49)” and the “Tumor Growth Inhibition (%)” value [11, 18] was “c (% TGI in the range of 25-49)”. The “Tumor Growth Inhibition (%)” value [12, 15] was “b (% TGI in the range of 50-74)”, the “Tumor Growth Inhibition (%)” value ([4]; 14 days) was “b (% TGI in the range of 50-74)” and the “Tumor Growth Inhibition (%)” value [5] was “b (% TGI in the range of 50-74)”.

For `CCN(CC)C(=O)c1cc2nccc(Oc3ccc(NC(=S)NC(=O)Cc4ccccc4)cc3F)c2s1` [Example 7, 1-(4-(2-(diethylcarbamoyl)thieno[3,2-b]pyridin-7-yloxy)-3-fluorophenyl)-3-(2-phenylacetyl)thiourea], the pIC50 [1] was 6.30 to 6.60, the pIC50 [13] was 6.60 to 7.30 and the “Tumor Growth Inhibition (%)” value [11, 18] was “b (% TGI in the range of 50-74)”. For the same compound, the pIC50 [14] was 6.60 to 7.30 and the “Tumor Growth Inhibition (%)” value [5] was “c (% TGI in the range of 25-49)”.

With `COc1ccccc1CC(=O)NC(=S)Nc1ccc(Oc2ccnc3cc(-c4cn(C)cn4)sc23)c(F)c1` [Example 138, N-(3-Fluoro-4-(2-(1-methyl-1H-imidazol-4-yl)thieno[3,2-b]pyridin-7-yloxy)phenylcarbamothioyl)-2-(2-methoxyphenyl)acetamide] the “Tumor Growth Inhibition (%)” value [8] was “b (% TGI in the range of 50-74)”.
